Results published in patent US5607707A, “Compositions” (priority 1992, dated 1997).

Key:
[1] = Method: The colour stability of the compositions according to the present invention were determined using the following simulated shelf and accelerated storage tests.
This is illustrated with data from a study in which combinations of β-carotene, apo-carotenal and ascorbic acid were incorporated in a typical beverage formulation. The products were stored in bright daylight conditions for a period of 30 days and the colour loss at the end of this period was determined by spectrophotometry.

[2] = Water solubility / dissolution; type: physicochemical; conditions: primary addition of apo-carotenal, in words
[3] = Effect of temperature on amount of emulsifier required to achieve optical clarity (Example 6); type: physicochemical; conditions: for Tween 60 required to achieve optical clarity: 1 g crystalline β-carotene
Method: One advantage of the present invention is the wide range of temperatures which can be used in b) above. The temperature developed in mixing in b) is preferably 80°-160° or 180°-200° C. The lower temperatures are particularly useful where more temperature sensitive ingredients are involved. […] Therefore to minimise the amount of emulsifier(s) used, a temperature of not less than 160° C. or preferably 180° C. is preferred. The use of these high temperatures incurs the risk of degradation of pigment unless suitable precautions are taken. For example it is necessary to incorporate an antioxidant in the initial stages of preparation and it is desirable to exclude oxygen by heating the mixture in an atmosphere of nitrogen.
1 g of crystalline β-carotene required the following amounts of Tween 60 at the temperatures stated

| effect on dissolution of carotene [2] | Tween 60 required to achieve optical clarity ([3]; 140 °C) | Tween 60 required to achieve optical clarity ([3]; 160 °C) | Tween 60 required to achieve optical clarity ([3]; 180 °C) | Tween 60 required to achieve optical clarity ([3]; 200 °C) | SMILES | stabilising effect on colour [1] | effect of temperature on emulsifier required to achieve optical clarity ([3]; pure β-carotene, in words) |
| --- | --- | --- | --- | --- | --- | --- | --- |
|  |  |  |  |  | O=C1O[C@H]([C@@H](O)CO)C(O)=C1O [ascorbic acid] | effective in reinforcing the stabilising effect of the antioxidants |  |
| promoting the dissolution of carotene |  |  |  |  | CC(C=O)=CC=CC(C)=CC=CC=C(C)C=CC=C(C)C=CC1=C(C)CCCC1(C)C [apo-carotenal, β-8'-apo-carotenal] | helps to stabilise β-carotene |  |
|  | 10.5 g | 7.5 g | 4.0 g | 3.0 g | CC1=C(/C=C/C(C)=C/C=C/C(C)=C/C=C/C=C(C)/C=C/C=C(C)/C=C/C2=C(C)CCCC2(C)C)C(C)(C)CCC1 [crystalline β-carotene, β-carotene] |  | an increase in temperature permits a reduction in the amount of emulsifier(s) required |
